Measurements published in the supplement of paper PMC10627819.

Legend:
Experiment in all cases: fitness (endpoint OD595 vs no drug) (fraction); higher = more growth
[1] = tested on: B. subtilis 168
Outline: (§1)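 In 384-well plates at 37 °C, cultures began at OD595 0.01 in 30 µl, with 55 µl used for S. pneumoniae. OD595 readings every 30 min for 14 h were corrected by the first reading. Fitness divides the stationary-phase transition optical density by the robust mean of no-drug control wells. The result is capped at 1.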

[2] = tested on: S. aureus DSM 20231
Outline: as §1

[3] = tested on: S. pneumoniae D39V
Outline: as §1
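Note: OD595 on entry to stationary phase over no-drug wells; at most 1.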

CN(C)[C@@H]1C(O)=C(C(N)=O)C(=O)[C@@]2(O)C(O)=C3C(=O)c4c(O)ccc(Cl)c4[C@@](C)(O)[C@H]3C[C@@H]12 [Chlortetracycline] + COc1c(N2C[C@@H]3CCCN[C@@H]3C2)c(F)cc2c(=O)c(C(=O)O)cn(C3CC3)c12 [Moxifloxacin]
Conditions	fitness
[1], first compound 0.0475 µg/mL, partner 0.0312 µg/mL	0.0451
[1], first compound 0.0475 µg/mL, partner 0.0625 µg/mL	0.0327
[1], first compound 0.0475 µg/mL, partner 0.125 µg/mL	0.0439
[1], first compound 0.0475 µg/mL, partner 2 µg/mL	0.0242
[1], first compound 0.0475 µg/mL, partner 4 µg/mL	0.0248
[1], first compound 0.0475 µg/mL, partner 8 µg/mL	0.0159
[1], first compound 0.095 µg/mL, partner 0.0312 µg/mL	0.104
[1], first compound 0.095 µg/mL, partner 0.0625 µg/mL	0.0278
[1], first compound 0.095 µg/mL, partner 0.125 µg/mL	0.0296
[1], first compound 0.095 µg/mL, partner 2 µg/mL	0.0289
[1], first compound 0.095 µg/mL, partner 4 µg/mL	0.0255
[1], first compound 0.095 µg/mL, partner 8 µg/mL	0.0155
[1], first compound 0.19 µg/mL, partner 0.0312 µg/mL	0.0533
[1], first compound 0.19 µg/mL, partner 0.0625 µg/mL	0.0332
[1], first compound 0.19 µg/mL, partner 0.125 µg/mL	0.0433
[1], first compound 0.19 µg/mL, partner 2 µg/mL	0.0261
[1], first compound 0.19 µg/mL, partner 4 µg/mL	0.0247
[1], first compound 0.19 µg/mL, partner 8 µg/mL	0.0129
[2], first compound 0.012 µg/mL, partner 0.0075 µg/mL	0.558
[2], first compound 0.012 µg/mL, partner 0.015 µg/mL	0.539
[2], first compound 0.012 µg/mL, partner 0.03 µg/mL	0.604
[2], first compound 0.024 µg/mL, partner 0.0075 µg/mL	0.193
[2], first compound 0.024 µg/mL, partner 0.015 µg/mL	0.177
[2], first compound 0.048 µg/mL, partner 0.0075 µg/mL	0.185
[2], first compound 0.048 µg/mL, partner 0.015 µg/mL	0.172
[2], first compound 0.048 µg/mL, partner 0.03 µg/mL	0.132
[3], first compound 0.012 µg/mL, partner 0.005 µg/mL	0.907
[3], first compound 0.012 µg/mL, partner 0.01 µg/mL	0.923
[3], first compound 0.012 µg/mL, partner 0.02 µg/mL	0.765
[3], first compound 0.024 µg/mL, partner 0.005 µg/mL	0.863
[3], first compound 0.024 µg/mL, partner 0.01 µg/mL	0.915
[3], first compound 0.024 µg/mL, partner 0.02 µg/mL	0.844
[3], first compound 0.048 µg/mL, partner 0.005 µg/mL	0.821
[3], first compound 0.048 µg/mL, partner 0.01 µg/mL	0.871
[3], first compound 0.048 µg/mL, partner 0.02 µg/mL	0.78
[3], first compound 0.375 µg/mL, partner 0.0312 µg/mL	0.0285
[3], first compound 0.375 µg/mL, partner 0.0625 µg/mL	0.0351
[3], first compound 0.375 µg/mL, partner 0.125 µg/mL	0.0309
[3], first compound 0.75 µg/mL, partner 0.0312 µg/mL	0.0253
[3], first compound 0.75 µg/mL, partner 0.0625 µg/mL	0.0219
[3], first compound 0.75 µg/mL, partner 0.125 µg/mL	0.0157
[3], first compound 1.5 µg/mL, partner 0.0312 µg/mL	0.0473
[3], first compound 1.5 µg/mL, partner 0.0625 µg/mL	0.0386
[3], first compound 1.5 µg/mL, partner 0.125 µg/mL	0.0409

[2], one replicate
Conditions	fitness
first compound 0.006 µg/mL, partner 0.0075 µg/mL	0.729
first compound 0.006 µg/mL, partner 0.015 µg/mL	0.719
first compound 0.006 µg/mL, partner 0.03 µg/mL	0.621
first compound 0.012 µg/mL, partner 0.06 µg/mL	0.659
first compound 0.012 µg/mL, partner 0.12 µg/mL	0.548
first compound 0.024 µg/mL, partner 0.06 µg/mL	0.66
first compound 0.024 µg/mL, partner 0.12 µg/mL	0.535
first compound 0.048 µg/mL, partner 0.06 µg/mL	0.14
first compound 0.048 µg/mL, partner 0.12 µg/mL	0.165

CN(C)[C@@H]1C(O)=C(C(N)=O)C(=O)[C@@]2(O)C(O)=C3C(=O)c4c(O)ccc(Cl)c4[C@@](C)(O)[C@H]3C[C@@H]12 [Chlortetracycline] + CCN(CC)CCOC(=O)c1ccc(N)cc1 [Procaine]
fitness
Conditions	partner 85.5 µg/mL	partner 171 µg/mL	partner 342 µg/mL
[1], first compound 0.0475 µg/mL	0.908	0.855	0.878
[1], first compound 0.095 µg/mL	0.695	0.699	0.703
[1], first compound 0.19 µg/mL	–	0.528	–
[2], first compound 0.012 µg/mL	0.568	0.615	0.613
[2], first compound 0.024 µg/mL	0.23	0.2	0.2
[2], first compound 0.048 µg/mL	0.0791	0.058	0.0382
[3], first compound 0.375 µg/mL	0.0458	0.0259	0.0318
[3], first compound 0.75 µg/mL	0.055	0.0347	0.0395
[3], first compound 1.5 µg/mL	0.0277	0.0174	0.0396

fitness, one replicate
Conditions	partner 85.5 µg/mL	partner 171 µg/mL	partner 342 µg/mL
[2], first compound 0.006 µg/mL	0.713	0.8	0.737
[3], first compound 0.012 µg/mL	0.95	0.897	0.929
[3], first compound 0.024 µg/mL	0.921	0.835	0.86
[3], first compound 0.048 µg/mL	0.835	0.726	0.736

CN(C)[C@@H]1C(O)=C(C(N)=O)C(=O)[C@@]2(O)C(O)=C3C(=O)c4c(O)ccc(Cl)c4[C@@](C)(O)[C@H]3C[C@@H]12 [Chlortetracycline] + CCC[C@@H]1C[C@@H](C(=O)N[C@@H]([C@H]2O[C@H](SC)[C@H](O)[C@@H](O)[C@H]2O)[C@@H](C)O)N(C)C1 [Lincomycin]
Conditions	fitness
[1], first compound 0.0475 µg/mL, partner 0.1 µg/mL	0.87
[1], first compound 0.0475 µg/mL, partner 0.2 µg/mL	0.862
[1], first compound 0.0475 µg/mL, partner 0.4 µg/mL	0.85
[1], first compound 0.095 µg/mL, partner 0.1 µg/mL	0.805
[1], first compound 0.095 µg/mL, partner 0.2 µg/mL	0.817
[1], first compound 0.095 µg/mL, partner 0.4 µg/mL	0.803
[1], first compound 0.19 µg/mL, partner 0.1 µg/mL	0.648
[1], first compound 0.19 µg/mL, partner 0.2 µg/mL	0.489
[1], first compound 0.19 µg/mL, partner 0.4 µg/mL	0.406
[2], first compound 0.012 µg/mL, partner 0.1 µg/mL	0.472
[2], first compound 0.012 µg/mL, partner 0.2 µg/mL	0.259
[2], first compound 0.012 µg/mL, partner 0.4 µg/mL	0.0974
[2], first compound 0.024 µg/mL, partner 0.1 µg/mL	0.233
[2], first compound 0.024 µg/mL, partner 0.2 µg/mL	0.104
[2], first compound 0.024 µg/mL, partner 0.4 µg/mL	0.0491
[2], first compound 0.048 µg/mL, partner 0.1 µg/mL	0.0441
[2], first compound 0.048 µg/mL, partner 0.2 µg/mL	0.0385
[2], first compound 0.048 µg/mL, partner 0.4 µg/mL	0.0333
[3], first compound 0.012 µg/mL, partner 0.215 µg/mL	0.802
[3], first compound 0.012 µg/mL, partner 0.43 µg/mL	0.716
[3], first compound 0.012 µg/mL, partner 0.86 µg/mL	0.268
[3], first compound 0.024 µg/mL, partner 0.215 µg/mL	0.769
[3], first compound 0.024 µg/mL, partner 0.43 µg/mL	0.666
[3], first compound 0.024 µg/mL, partner 0.86 µg/mL	0.246
[3], first compound 0.048 µg/mL, partner 0.215 µg/mL	0.636
[3], first compound 0.048 µg/mL, partner 0.43 µg/mL	0.426
[3], first compound 0.048 µg/mL, partner 0.86 µg/mL	0.222
[3], first compound 0.375 µg/mL, partner 0.2 µg/mL	0.0295
[3], first compound 0.375 µg/mL, partner 0.4 µg/mL	0.0454
[3], first compound 0.375 µg/mL, partner 0.8 µg/mL	0.0386
[3], first compound 0.75 µg/mL, partner 0.2 µg/mL	0.0393
[3], first compound 0.75 µg/mL, partner 0.4 µg/mL	0.0417
[3], first compound 0.75 µg/mL, partner 0.8 µg/mL	0.0458
[3], first compound 1.5 µg/mL, partner 0.2 µg/mL	0.0273
[3], first compound 1.5 µg/mL, partner 0.4 µg/mL	0.035
[3], first compound 1.5 µg/mL, partner 0.8 µg/mL	0.0234

one replicate
Conditions	fitness
[1], first compound 0.0475 µg/mL, partner 0.8 µg/mL	0.845
[1], first compound 0.0475 µg/mL, partner 1.6 µg/mL	0.761
[1], first compound 0.095 µg/mL, partner 0.8 µg/mL	0.692
[1], first compound 0.095 µg/mL, partner 1.6 µg/mL	0.5
[1], first compound 0.19 µg/mL, partner 0.8 µg/mL	0.0991
[1], first compound 0.19 µg/mL, partner 1.6 µg/mL	0.0613
[2], first compound 0.006 µg/mL, partner 0.1 µg/mL	0.712
[2], first compound 0.006 µg/mL, partner 0.2 µg/mL	0.483
[2], first compound 0.006 µg/mL, partner 0.4 µg/mL	0.203

CC(=O)Oc1ccccc1C(=O)O [Acetylsalicylic acid] + CN[C@H](CC(C)C)C(=O)N[C@H]1C(=O)N[C@@H](CC(N)=O)C(=O)N[C@H]2C(=O)N[C@H]3C(=O)N[C@H](C(=O)N[C@H](C(=O)O)c4cc(O)cc(O)c4-c4cc3ccc4O)[C@H](O)c3ccc(c(Cl)c3)Oc3cc2cc(c3O[C@@H]2O[C@H](CO)[C@@H](O)[C@H](O)[C@H]2O[C@H]2C[C@](C)(N)[C@H](O)[C@H](C)O2)Oc2ccc(cc2Cl)[C@H]1O [Vancomycin]
fitness
Conditions	first compound 250 µg/mL	first compound 500 µg/mL	first compound 1000 µg/mL
[2], partner 0.1875 µg/mL	0.871	0.79	0.592
[2], partner 0.375 µg/mL	0.953	–	0.562
[2], partner 0.75 µg/mL	0.947	–	–
[3], partner 0.03125 µg/mL	0.956	0.934	0.839
[3], partner 0.0625 µg/mL	0.894	0.885	0.826
[3], partner 0.125 µg/mL	0.927	0.917	0.84
[3], partner 0.25 µg/mL	0.984	0.961	0.83
[3], partner 0.5 µg/mL	0.105	0.0715	0.0849

CC(=O)Oc1ccccc1C(=O)O [Acetylsalicylic acid] + C[n+]1ccc(-c2cc[n+](C)cc2)cc1 [Paraquat]
fitness
Conditions	partner 1.25 µg/mL	partner 1.5 µg/mL	partner 2.5 µg/mL	partner 3 µg/mL	partner 5 µg/mL	partner 6 µg/mL
[2], first compound 250 µg/mL	0.877	–	0.868	–	0.861	–
[2], first compound 500 µg/mL	0.823	–	0.807	–	0.774	–
[3], first compound 250 µg/mL	–	0.972	–	0.954	–	0.934
[3], first compound 500 µg/mL	–	0.969	–	0.938	–	0.872
[3], first compound 1000 µg/mL	–	0.916	–	0.873	–	0.772
